Measurements taken from patent US20230098332A1, “HETEROCYCLIC DERIVATIVES AS TRMP8 ANTAGONISTS” (Givaudan SA, priority 2020, published 2023).

What was measured:
[1] = test system: trained group of panelists; experiment: Sensory studies in aqueous solution (trained panelists, cooling in the mouth); format: in vivo, human; conditions: 40 ppm in aqueous solution, 20 mL swilled in the mouth for 60 seconds; for Cooling after 1 hour / Max. cooling: averaged panel score 0-10
Protocol: The compounds as listed below in Table 2 were dissolved at a concentration of 1 wt-% in propylene glycol. These solutions were then dispensed in appropriate quantities into deionized water containing 0.5 wt-% Poloxamer 407 (which is a hydrophilic non-ionic surfactant, e.g., commercially available from SigmaAldrich) and 0.25 wt-% Cremaphor® RH40 (obtained from BASF) as solubilizer, to obtain the desired final concentration of 40 ppm (parts per million) of the respective compound.
A trained group of panelists evaluated the aqueous solutions containing test compound by swilling 20 mL of the solution in the mouth for 60 seconds, followed by spitting, without rinsing the mouth afterwards for the duration of the evaluation. Panelists evaluated and recorded the cooling performance as well as other sensorial and organoleptic attributes at different timepoints over a period of two hours. Cooling performance was rated on a scale from 0 to 10 with 0 being no effect and 10 being freezing. Scores were averaged for all panelists and the cooling intensity qualified as “N” for “none” (score of 0), “L” for “low” (score above 0, up to 1), “M” for “medium” (score above 1, up to 4), “S” for “strong” (score above 4, up to 8) and “E” for “extreme” (score above 8), which are provided in Table 2.

[2] = test system: trained group of panelists; experiment: Sensory studies in model dentifrice (trained panelists, cooling in the mouth); format: in vivo, human; conditions: 100 ppm in model unflavored dentifrice, brushing with 1 g for 60 seconds; for Cooling after 1 hour / Max. cooling: averaged panel score 0-10
Protocol: The compounds listed in Table 3 were dissolved at a concentration of 1 wt-% in propylene glycol. These solutions were then dispersed in appropriate quantities to obtain the desired final concentration of 100 ppm (parts per million) of the test compound into a model, unflavored dentifrice, the formula of which is given below (ingredients obtained from the suppliers respectively indicated in parenthesis).
A trained group of panelists evaluated the dentifrice containing a compound of formula (I), by brushing their teeth with 1 g of the dentifrice using a toothbrush for 60 seconds, followed by spitting, without rinsing the mouth afterwards for the duration of the evaluation. Panelists evaluated and recorded the cooling performance as well as other sensorial and organoleptic attributes at different timepoints over a period of two hours. Cooling performance was rated on a scale from 0 to 10 with 0 being no effect and 10 being freezing. Scores were averaged for all panelists and the cooling intensity qualified as “N” for “none” (score of 0), “L” for “low” (score above 0, up to 1), “M” for “medium” (score above 1, up to 4), “S” for “strong” (score above 4, up to 8) and “E” for “extreme” (score above 8), which are summarized below in Table 3.

hTRPM8 = target: T1, hTRPM8 (Homo sapiens, UniProt Q7Z2W7); experiment: Assay on TRPM8 modulators: calcium imaging (Fluo-4, Flexstation) in HEK293 cell line stably expressing hTRPM8; format: cell-based; conditions: TRPM8 agonist activity, calcium influx, HEK293 stably expressing hTRPM8, sigmoidal dose-response fit
T1 construct: expressed in transfected cells
Summary of the method: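 Calcium influx monitored by Fluo-4 (2.7 μM with […] probenecid, 1 h 37 °C loading) in HEK293 cells stably expressing hTRPM8, in HEPES buffer pH 7.4 with 2 mM CaCl2. Fluorescence read 15 s before and 105 s after adding serial compound dilutions. Maximal activation relative to solvent and 31.6 μM menthol; EC50 from sigmoidal fit.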

T1 sequence (Q7Z2W7 whole entry): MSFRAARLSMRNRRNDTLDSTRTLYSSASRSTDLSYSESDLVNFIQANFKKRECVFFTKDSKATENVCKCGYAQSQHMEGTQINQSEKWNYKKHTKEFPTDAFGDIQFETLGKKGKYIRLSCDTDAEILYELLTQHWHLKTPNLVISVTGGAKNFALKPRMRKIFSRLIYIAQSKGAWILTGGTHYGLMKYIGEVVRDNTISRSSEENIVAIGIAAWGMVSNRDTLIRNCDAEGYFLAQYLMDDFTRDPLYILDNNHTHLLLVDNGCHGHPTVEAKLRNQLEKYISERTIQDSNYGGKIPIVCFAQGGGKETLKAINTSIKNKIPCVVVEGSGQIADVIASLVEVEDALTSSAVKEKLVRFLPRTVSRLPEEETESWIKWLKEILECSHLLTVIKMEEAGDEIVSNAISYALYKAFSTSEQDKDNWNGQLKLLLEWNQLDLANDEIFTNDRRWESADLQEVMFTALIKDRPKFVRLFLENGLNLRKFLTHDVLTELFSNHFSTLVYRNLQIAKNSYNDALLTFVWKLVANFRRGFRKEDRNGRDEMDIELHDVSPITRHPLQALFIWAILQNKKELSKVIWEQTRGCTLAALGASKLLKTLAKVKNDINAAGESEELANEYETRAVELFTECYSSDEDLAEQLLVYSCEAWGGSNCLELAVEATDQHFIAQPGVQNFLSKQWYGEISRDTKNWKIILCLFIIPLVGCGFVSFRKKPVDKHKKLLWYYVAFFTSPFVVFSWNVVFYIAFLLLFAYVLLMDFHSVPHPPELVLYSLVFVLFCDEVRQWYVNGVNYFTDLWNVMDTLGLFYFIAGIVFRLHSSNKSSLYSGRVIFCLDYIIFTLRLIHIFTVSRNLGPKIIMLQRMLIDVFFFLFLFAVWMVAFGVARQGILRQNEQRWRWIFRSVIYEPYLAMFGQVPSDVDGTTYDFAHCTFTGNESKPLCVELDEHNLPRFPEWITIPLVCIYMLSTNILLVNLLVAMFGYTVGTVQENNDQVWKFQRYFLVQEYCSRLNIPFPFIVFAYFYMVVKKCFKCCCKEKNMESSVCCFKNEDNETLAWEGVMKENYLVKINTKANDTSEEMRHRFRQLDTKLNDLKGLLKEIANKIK

Compound	Time of max. cooling [1]	Cooling after 1 hour [1]	Max. cooling [1]	Time of max. cooling [2]	Cooling after 1 hour [2]	Max. cooling [2]	EC50 (hTRPM8)
Cc1ccc(OCCN2CCN(C)CC2)c(Cc2ccccc2C#N)c1.Cl.Cl [compound 130, 2-(5-methyl-2-(2-(4-methylpiperazin-1-yl)ethoxy)benzyl)benzonitrile dihydrochloride]	30 min	S (“S” for “strong” (score above 4, up to 8))	S (“S” for “strong” (score above 4, up to 8))	30 min	M (“M” for “medium” (score above 1, up to 4))	M (“M” for “medium” (score above 1, up to 4))	–
Cc1cc(C)c(OCCN2CCOCC2)c(Cc2ccccc2F)c1 [compound 153, 4-(2-(2-(2-fluorobenzyl)-4,6-dimethylphenoxy)ethyl)morpholine]	20 min	M (“M” for “medium” (score above 1, up to 4))	M (“M” for “medium” (score above 1, up to 4))	5 min	L (“L” for “low” (score above 0, up to 1))	M (“M” for “medium” (score above 1, up to 4))	50 to 300 nM
Cc1cc(C)c(CCCN2CCOCC2)c(Oc2ccccc2C#N)c1 [compound 125, 2-(3,5-dimethyl-2-(3-morpholinopropyl)phenoxy)benzonitrile]	10 min	M (“M” for “medium” (score above 1, up to 4))	M (“M” for “medium” (score above 1, up to 4))	30 min	M (“M” for “medium” (score above 1, up to 4))	M (“M” for “medium” (score above 1, up to 4))	< 50 nM
Cc1cc(C)c(OCCN2CCN(C)CC2)c(Cc2ccccc2)c1.Cl.Cl [compound 71, 1-(2-(2-benzyl-4,6-dimethylphenoxy)ethyl)-4-methylpiperazine dihydrochloride]	20 min	M (“M” for “medium” (score above 1, up to 4))	S (“S” for “strong” (score above 4, up to 8))	10 min	L (“L” for “low” (score above 0, up to 1))	M (“M” for “medium” (score above 1, up to 4))	–
Cc1cc(C)c(OCCN2CCN(C)CC2)c(Cc2ccccc2C#N)c1.Cl [compound 118, 2-(3,5-dimethyl-2-(2-(4-methylpiperazin-1-yl)ethoxy)benzyl)benzonitrile hydrochloride]	20 min	S (“S” for “strong” (score above 4, up to 8))	S (“S” for “strong” (score above 4, up to 8))	30 min	M (“M” for “medium” (score above 1, up to 4))	M (“M” for “medium” (score above 1, up to 4))	< 50 nM
Cc1cc(C)c(OCCN2CCOCC2)c(Cc2c(F)cccc2F)c1 [compound 149, 4-(2-(2-(2,6-difluorobenzyl)-4,6-dimethylphenoxy)ethyl)morpholine]	20 min	M (“M” for “medium” (score above 1, up to 4))	S (“S” for “strong” (score above 4, up to 8))	30 min	M (“M” for “medium” (score above 1, up to 4))	M (“M” for “medium” (score above 1, up to 4))	50 to 300 nM
Cc1ccc(OCCN2CCN(C)CC2)c(Cc2ccccc2)c1.Cl [compound 85, 1-(2-(2-benzyl-4-methylphenoxy)ethyl)-4-methylpiperazine hydrochloride]	20 min	M (“M” for “medium” (score above 1, up to 4))	S (“S” for “strong” (score above 4, up to 8))	20 min	L (“L” for “low” (score above 0, up to 1))	L (“L” for “low” (score above 0, up to 1))	–
Cc1ccc(N(C)CCN2CCN(C)CC2)c(Cc2ccccc2)c1 [compound 137, 2-benzyl-N,4-dimethyl-N-(2-(4-methylpiperazin-1-yl)ethyl)aniline]	10 min	M (“M” for “medium” (score above 1, up to 4))	S (“S” for “strong” (score above 4, up to 8))	10 min	L (“L” for “low” (score above 0, up to 1))	M (“M” for “medium” (score above 1, up to 4))	50 to 300 nM
Cc1cc(C)c(OCCN2CCOCC2)c(Cc2ccccc2C#N)c1 [compound 122, 2-(3,5-dimethyl-2-(2-morpholinoethoxy)benzyl)benzonitrile]	10 min	M (“M” for “medium” (score above 1, up to 4))	S (“S” for “strong” (score above 4, up to 8))	10 min	M (“M” for “medium” (score above 1, up to 4))	S (“S” for “strong” (score above 4, up to 8))	< 50 nM
